Experimental data from patent publication US7863449B2, “Modulators of muscarinic receptors” (Vertex Pharmaceuticals Incorporated, priority 2004, dated 2011).

Assays:
[1] = molecular target: T1, M1 muscarinic receptor (Homo sapiens, UniProt P11229); experiment: Functional mobilization of intracellular calcium (FLIPR), M1-CHO cells; type: cell-based; settings: for Emax: 100% efficacy is the maximum response obtained using Carbachol as a control; for M1 Activity: M1-CHO cells, FLIPR calcium mobilization
T1 construct: expressed in transfected cells; host or cells: CHO (M1-CHO)
T1 sequence (P11229 1-460): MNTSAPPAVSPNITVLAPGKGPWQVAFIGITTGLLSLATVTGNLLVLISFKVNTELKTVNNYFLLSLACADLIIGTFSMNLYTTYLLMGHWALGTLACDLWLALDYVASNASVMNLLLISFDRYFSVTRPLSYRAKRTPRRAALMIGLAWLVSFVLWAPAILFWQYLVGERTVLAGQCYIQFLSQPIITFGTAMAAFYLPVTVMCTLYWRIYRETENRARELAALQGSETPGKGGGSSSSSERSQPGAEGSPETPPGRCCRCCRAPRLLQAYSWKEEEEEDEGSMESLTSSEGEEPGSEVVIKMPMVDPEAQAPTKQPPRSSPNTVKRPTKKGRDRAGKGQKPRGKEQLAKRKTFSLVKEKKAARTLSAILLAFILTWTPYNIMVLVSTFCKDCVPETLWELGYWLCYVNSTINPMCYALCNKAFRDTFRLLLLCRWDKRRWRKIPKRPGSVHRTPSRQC
Method: (§1) Functional Mobilization of Intracellular Calcium to Determine Muscarinic Receptor Activity:
(§2) CHO cells expressing muscarinic receptors (M1 to M5) are grown as monolayers in tissue culture flasks at 37° C. in a humidified atmosphere containing 5% CO2 and passaged every 3-5 days. The growth media is Dulbecco's modified eagles medium (DMEM, Gibco Cat# 12430-054), containing 25 mM Hepes and supplemented with Fetal Bovine Serum (Hyclone, cat# SH30071.03), 0.1 mM of MEM non-essential amino acids (GIBCO, Cat# 11140-050), 1 mM MEM Sodium Pyruvate (GIBCO Cat# 11360-070) and 100 units/ml of Penicillin G and 100 μg/ml of Streptomycin (GIBCO Cat# 15140-122). The recombinant muscarinic receptor cell lines are grown under antibiotic pressure with media containing 25 μg/ml zeocin and 500 μg/ml G418 (M1-CHO), 4 μg/ml puromycin, 50 μg/ml zeocin and 2.5 μg/ml blasticidin (M2 and M4-CHO) or 50 μg/ml zeocin and 4 μg/ml puromycin (M3 and M5-CHO).
(§3) Cells are harvested at 80-90% confluence using Versene (GIBCO Cat# 15040-066), collected by centrifugation and seeded 18-24 hrs prior to running the calcium assay at a density of 5,000-10,000 cells/well in […], clear-bottomed 384-well plates (BD Biocoat, poly-D-lysine, Cat#356663). The day of the experiment, the cells are washed with a plate washer (Bioteck Instruments, ELX 405) using bath1 buffer (140-mM NaCl, 4.5-mM KCl, 2-mM CaCl2, 1-mM MgCl2, 10-mM Hepes-Na, 10-mM Glucose, pH 7.4, with NaOH) containing 1 mM Probenecid. Next, the calcium dye Fluo-3 (25 μl/well of Fluo-3 AM at 4 μM, Molecular Probes F-1241, in Bath 1 buffer containing 1 mM Probenecid) is added to the 25 μl of Bath 1 remaining in each well after the plate wash and the dye is loaded at 37° C. in the tissue culture incubator for 60-90 min. The fluorescent dye is removed using the plate washer with Bath 1 containing 1 mM Probenecid, leaving 25 μl/well of this solution after the wash. Alternatively, cells can be loaded with the calcium indicator from Molecular Devices (Calcium 3 Assay Reagents, Cat # R7181) adding 5 μl of a 5× solution dye in Bath 1 containing 1 mM Probenecid (10 ml per dye flask cat# R7182 to generate a solution 20×) to 20 μl of the same buffer. After loading for 60 min, the experiment can be run without having to remove the dye.
(§4) Compounds are prepared at a 2× fold concentration in a 96-well plate (round bottom, Costar Corning cat# 3656), by reconstituting the pre-spotted compounds in bath 1 containing 1 mM probenecid. The final concentration DMSO is 0.5%, and the amount of DMSO is normalized across the assay plate. To determine an agonist action of the compounds on muscarinic receptors, the reconstituted compounds are added (25 μl compound/well) to the cell assay plate (containing 25 μl/well) using the multi-channel robotic system of the FLIPR 3 Instrument (Molecular Devices, Sunnyvale, Calif.). To determine a functional inhibitory action of the compounds on muscarinic receptors, the reconstituted compounds are added (25 μl compound/well) to the assay plate and pre-incubated for 15 min prior to adding 25 μl of Carbachol at 3× the EC80 for each muscarinic subtype. Alternatively, the compounds can be co-applied simultaneously with the agonist. In both assay modes, the fluorescence is recorded for 60 sec (excitation wavelength is […] and emission wavelength 540 nm) using the FLIPR 3 instrument.
(§5) The potency, efficacy and selectivity of the muscarinic compounds were evaluated by screening the compound activity across the whole family (M1 to M5 cells). Compounds were also screened for activity on other proteins such as other GPCRs and ion channels to determine selectivity on M4 receptors.

[2] = molecular target: T2, M4 muscarinic receptor (Homo sapiens, UniProt P08173); experiment: Functional mobilization of intracellular calcium (FLIPR), M4-CHO cells; type: cell-based; settings: for Emax: 100% efficacy is the maximum response obtained using Carbachol as a control; for M4 Activity: M4-CHO cells, FLIPR calcium mobilization
T2 construct: expressed in transfected cells; host or cells: CHO (M4-CHO)
T2 sequence (P08173 1-479): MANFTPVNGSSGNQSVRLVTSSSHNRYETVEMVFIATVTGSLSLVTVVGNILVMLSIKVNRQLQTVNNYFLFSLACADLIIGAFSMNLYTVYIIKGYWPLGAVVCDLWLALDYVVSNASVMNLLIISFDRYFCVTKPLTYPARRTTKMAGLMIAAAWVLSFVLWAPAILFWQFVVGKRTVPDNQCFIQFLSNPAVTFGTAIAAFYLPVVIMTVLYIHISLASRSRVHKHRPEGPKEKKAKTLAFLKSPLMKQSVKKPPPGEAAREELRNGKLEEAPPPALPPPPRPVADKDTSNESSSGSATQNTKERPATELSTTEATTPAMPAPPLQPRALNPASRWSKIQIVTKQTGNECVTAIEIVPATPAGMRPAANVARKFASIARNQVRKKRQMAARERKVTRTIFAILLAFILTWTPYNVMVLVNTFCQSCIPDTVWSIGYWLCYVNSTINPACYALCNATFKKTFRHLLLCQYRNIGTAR
Method: as §1, §2, §3, §4, §5

Row | SMILES | Emax [1] [%] | M1 Activity [1] | Emax [2] [%] | M4 Activity [2]
1 | CCOC(=O)N1CC(CN2CCC3(CC2)CN(C(C)=O)Cc2ccccc23)C1 [compound 1] | 25 to 100 | ++ (activity was measured to be from 1.0 μM to 5.0 μM) | < 25 | ++ (activity was measured to be from 1.0 μM to 5.0 μM)
2 | CC(=O)N1Cc2ccccc2C2(CCN(CC3CCC(C)=CC3C)CC2)C1 (centres unmarked) [compound 2] | < 25 |  | < 25 | 
3 | CN(C)S(=O)(=O)N1Cc2ccccc2C2(CCN(C3CC4CCC(C3)N4C(=O)O[C@@H]3CCOC3)CC2)C1 (some centres unmarked) [compound 3] | 25 to 100 | +++ (activity was measured to be less than 1.0 μM) | 25 to 100 | +++ (activity was measured to be less than 1.0 μM)
4 | CC(=O)N1Cc2ccccc2C2(CCN(C3(C)CCCCC3)CC2)C1 [compound 4, 1-(1′-(1-methylcyclohexyl)-1H-spiro[isoquinoline-4,4′-piperidine]-2(3H)-yl)ethanone] | 25 to 100 | ++ (activity was measured to be from 1.0 μM to 5.0 μM) | 25 to 100 | +++ (activity was measured to be less than 1.0 μM)
5 | CC(=O)N1Cc2ccccc2C2(CCN(Cc3ccncc3)CC2)C1 [compound 5] | < 25 | + (activity was measured to be greater than 5.0 μM) | < 25 | + (activity was measured to be greater than 5.0 μM)
6 | CCOC(=O)N1CCC(N2CCC3(CC2)CN(C(=O)CC)Cc2ccccc23)CC1 [compound 6] | 25 to 100 | +++ (activity was measured to be less than 1.0 μM) | 25 to 100 | +++ (activity was measured to be less than 1.0 μM)
7 | CCCOC(=O)N1C2CCC1CC(N1CCC3(CC1)CN(C(=O)N(C)C)Cc1ccccc13)C2 (centres unmarked) [compound 7] | 25 to 100 | +++ (activity was measured to be less than 1.0 μM) | 25 to 100 | +++ (activity was measured to be less than 1.0 μM)
8 | CCOC(=O)N1C2CCC1CC(N1CCC3(CC1)CN(C(=O)OC(C)C)Cc1ccccc13)C2 (centres unmarked) [compound 8] | 25 to 100 | +++ (activity was measured to be less than 1.0 μM) | 25 to 100 | +++ (activity was measured to be less than 1.0 μM)
9 | CCOC(=O)N1CCC(N2CCC3(CC2)CN(CC#Cc2ccccc2)Cc2ccccc23)CC1 [compound 9] | 25 to 100 | +++ (activity was measured to be less than 1.0 μM) | 25 to 100 | +++ (activity was measured to be less than 1.0 μM)
10 | CCOC(=O)N1CCC(N2CCC3(CC2)CN(C(=O)C2CCCC2)Cc2ccccc23)CC1 [compound 10] | 25 to 100 | +++ (activity was measured to be less than 1.0 μM) | < 25 | ++ (activity was measured to be from 1.0 μM to 5.0 μM)
11 | CCOC(=O)N1CCC(CN2CCC3(CC2)CN(C(=O)OCC)Cc2ccccc23)CC1 [compound 11] | 25 to 100 | +++ (activity was measured to be less than 1.0 μM) | 25 to 100 | +++ (activity was measured to be less than 1.0 μM)
12 | CCOC(=O)N1C2CCC1CC(N1CCC3(CC1)CN(c1ccc(C)c(C)c1)Cc1ccccc13)C2 (centres unmarked) [compound 12] | 25 to 100 | +++ (activity was measured to be less than 1.0 μM) | 25 to 100 | +++ (activity was measured to be less than 1.0 μM)
13 | CC(=O)N1Cc2ccccc2C2(CCN(C3CC4CCC(C3)N4C(=O)O[C@@H]3CCOC3)CC2)C1 (some centres unmarked) [compound 13] | 25 to 100 | +++ (activity was measured to be less than 1.0 μM) | 25 to 100 | +++ (activity was measured to be less than 1.0 μM)
14 | CCOC(=O)N1C2CCC1CC(N1CCC3(CC1)CN(C(=O)OC1CCCC1)Cc1ccccc13)C2 (centres unmarked) [compound 14] | 25 to 100 | +++ (activity was measured to be less than 1.0 μM) | 25 to 100 | +++ (activity was measured to be less than 1.0 μM)
15 | CCOC(=O)N1C2CCC1CC(N1CCC3(CC1)CN(C(=O)c1cc(C)nn1C(C)(C)C)Cc1ccccc13)C2 (centres unmarked) [compound 15] | 25 to 100 | +++ (activity was measured to be less than 1.0 μM) | 25 to 100 | +++ (activity was measured to be less than 1.0 μM)
16 | CCOC(=O)N1CCC(N2CCC3(CC2)CN(C(=O)Nc2ccccc2)Cc2ccccc23)CC1 [compound 16] | 25 to 100 | +++ (activity was measured to be less than 1.0 μM) | 25 to 100 | +++ (activity was measured to be less than 1.0 μM)
17 | CCOC(=O)N1C2CCC1CC(N1CCC3(CC1)CN(C(=O)c1cccnc1)Cc1ccccc13)C2 (centres unmarked) [compound 17] | 25 to 100 | +++ (activity was measured to be less than 1.0 μM) | 25 to 100 | +++ (activity was measured to be less than 1.0 μM)
18 | CCOC(=O)N1C2CCC1CC(N1CCC3(CC1)CN(S(=O)(=O)c1ccc(C)cc1)Cc1ccccc13)C2 (centres unmarked) [compound 18] | 25 to 100 | +++ (activity was measured to be less than 1.0 μM) | 25 to 100 | +++ (activity was measured to be less than 1.0 μM)
19 | O=C1OC2(CCN(C[C@H]3C[C@H]4C=C[C@H]3C4)CC2)c2ccc(Cl)cc21 [compound 19] | 25 to 100 | ++ (activity was measured to be from 1.0 μM to 5.0 μM) | < 25 | ++ (activity was measured to be from 1.0 μM to 5.0 μM)
